In ChEMBL document CHEMBL1136375, “Design and synthesis of spiro-cyclopentenyl and spiro-[1,3]-dithiolanyl substituted pyrrolidine-5,5-trans-lactams as inhibitors of hepatitis C virus NS3/4A protease” (Bioorg Med Chem Lett, 2003):

Tests used:
Hepatitis C virus [1] = test: Inhibitory activity against hepatitis C virus protease enzyme(HCV) NS3/4A; assay type: functional, Hepacivirus hominis
Hepatitis C virus [2] = test: Inhibitory activity against hepatitis C virus protease enzyme(HCV) by using ELISA replicon assay; assay type: functional, organism-based, Hepacivirus hominis
[3] = In vitro stability behavior at 4 hr; assay type: physicochemical; details: read-out: Turnover

IC50 (Hepatitis C virus [2]) [µM] | degraded at 4 h [3] [%] | Structure (SMILES) | k obs / 1 (Hepatitis C virus [1]) [M⁻¹ s⁻¹]
 |  | CCN(CC)C(=O)N1C(=O)C2(CCC2)[C@@H]2[C@@H]1CCN2C(=O)[C@@H](NC(=O)OC(C)(C)C)C(C)C | 3.3
7.9 |  | CSC(=O)N1C(=O)C2(CCC2)[C@@H]2[C@@H]1CCN2C(=O)[C@@H](NC(=O)OC(C)(C)C)C(C)C | 154
4 | 27 | CC(C)[C@H](NC(=O)OC(C)(C)C)C(=O)N1CC[C@H]2[C@H]1C1(CCC1)C(=O)N2C(=O)C1CC1 | 400
 |  | C=C(C)C(=O)N1C(=O)C2(CCC2)[C@@H]2[C@@H]1CCN2C(=O)[C@@H](NC(=O)OC(C)(C)C)C(C)C | 24
17 | > 50 | CC(C)C(=O)N1C(=O)C2(SCCS2)[C@@H]2[C@@H]1CCN2C(=O)C(NC(=O)OC(C)(C)C)C(C)C (some centres not stated) | 362
 |  | CC(C)C(NC(=O)OC(C)(C)C)C(=O)N1CC[C@H]2[C@H]1C1(CC=CC1)C(=O)N2C(=O)C1CC1 (relative stereo) | 19
3.1 | 5 | CC(C)C(=O)N1C(=O)C2(CCC2)[C@@H]2[C@@H]1CCN2C(=O)[C@@H](NC(=O)OC(C)(C)C)C(C)C (relative stereo) | 166
> 100 | > 50 | CC(C)C(NC(=O)OC(C)(C)C)C(=O)N1CC[C@H]2[C@H]1C1(SCCS1)C(=O)N2C(=O)C1CC1 (relative stereo) | 621
